Test results from US20120082659A1, “Methods And Compositions Related To Synergistic Responses To Oncogenic Mutations” (priority 2007, published 2012).

Tests used:
[1] = system: mp53/Ras cells; experiment: Cell death / anoikis by TUNEL staining, mp53/Ras cells; format: cell-based, mouse; settings: methylcellulose without FBS or ITS-A
Protocol: (§1) The cells were re-plated at 458,000 cells per 15 cm dish in 10% FBS medium and treated for three days with 2.5 mM NB or VA at 39° C. Cells were then trypsinized and (A), (B) suspended in methylcellulose supplemented with fresh NB or VA, 10% FBS, and ITS-A at 37,000 cells per mL, or (C) suspended in methylcellulose w/o FBS, or ITS-A at 150,000 cells per mL and incubated at 39° C. for three days. Cells were extracted from the methylcellulose by repeated re-suspension in PBS w/1% BSA and centrifugation, and briefly trypsinized to break up cell aggregates. The extracted cells were labeled with 10 μM BrdU for ninety minutes prior to harvesting, fixed in cold 80% ethanol, and stained with an anti-BrdU antibody and propidium iodide to measure cell cycle progression (A), or fixed in 4% paraformaldehyde, and TUNEL-stained to measure cell death (B), (C). Error bars represent standard deviation values derived from multiple independent measurements for each sample. […]
(§2) For anoikis assays, cells were then trypsinized, counted and suspended in methylcellulose at a density of 1.5×10^5 cells/mL for an additional 72 hours in the absence of HDACi. […]
(§3) Paraformaldehyde-fixed cells were pelleted and washed with PBS containing 0.1% BSA. […] TUNEL-stained cells were analyzed by flow cytometry using a FACScalibur (Becton Dickinson). The percentage of TUNEL-positive cells was analyzed using ModFit LT for Mac v2.0.

[2] = system: YAMC cells; experiment: Proliferation and morphology of YAMC cells in adherent culture; format: cell-based, mouse; settings: 5 mM, three days, 10% FBS medium
Description: (§4) These compounds affect human cancer cell line behavior in vitro in the millimolar range and even higher concentrations are required in vivo (Villar-Garea and Esteller, 2004).

[3] = system: mp53/Ras cells; experiment: Xenograft tumor formation by mp53/Ras cells in nude mice; format: in vivo, mouse; settings: for tumor formation in nude mice by drug-pre-treated cells: mp53/Ras cells pre-treated in vitro with 2.5 mM, xenograft, vs untreated cells; for % Change in Tumor Volume (Perturbed vs. Control): mp53/Ras cells with gene perturbation, s.c. in nude mice, 4 weeks, vs matched vector control
Protocol: (§5) Murine mp53/Ras cells were grown at 39° C. for 2 days prior to injection. Human HT-29 and DLD-1 cells were grown in standard conditions, described above. Tumor formation was assessed by sub-cutaneous injection of 5×10^5 cells (mp53/Ras and DLD-1 cells) or 1.25×10^5 cells (HT-29) into CD-1 nude mice (Cr1:CD-1-Foxn1nu, Charles River Laboratories) in appropriate media (RPMI 1640 or DMEM) with no additives. For each replicate of all gene perturbations, 2-12 injections were performed for perturbed cells and vector controls, as indicated in FIGS. 12 and 16. Tumor size was measured by caliper at 2, 3 and 4 weeks post-injection. Tumor volume was calculated by the formula volume=(4/3)πr3, using the average of two radius measurements. Tumor reduction was calculated based on the average tumor volume following each gene perturbation as compared to the directly matched vector control tumors. Statistical significance of difference in tumor size was calculated by the Wilcoxn signed-rank test (Hollander, M. & Wolfe, D. A. Nonparametric Statistical Methods (Wiley-Interscience, Hoboken, N.J., 1998)), comparing tumors derived from perturbed cells with tumors induced by directly matching vector control cells.
Tumor formation was assessed by sub-cutaneous injection of cells into CD-1 nude mice (Cr1: CD-1-Foxn1^nu, Charles River Laboratories). Tumor size was measured by caliper at 2, 3 and 4 weeks post-injection. Significance of difference in tumor size was calculated by the Wilcoxn signed-rank test and by the t-test using directly matching vector control cells for each perturbation.
For tumor formation studies, cells were treated with HDACi as indicated above, then trypsinized, counted and injected sub-cutaneously into the flanks of CD-1 nude mice at a multiplicity of 5×10^5 cells per injection. Mice were observed and tumors measured for 4 weeks post-injection by caliper.
Murine mp53/Ras cells were grown at 39° C. for 2 days prior to injection. Human CaPan-2 and PC3 cells were grown in standard conditions, described above. Tumor formation was assessed by sub-cutaneous injection of 5×10^5 mp53/Ras cells or 7.5×10^5 CaPan-2 or PC3 cells into CD-1 nude mice (Cr1: CD-1-Foxn1^nu, Charles River Laboratories) in appropriate media (RPMI 1640 or DMEM) with no additives. For each replicate of all gene perturbations, 2-12 injections were performed for perturbed cells and vector controls. Tumor size was measured by caliper weekly for up to 6 weeks post-injection. Tumor volume was calculated by the formula volume=(4/3)πr^3, using the average of two radius measurements. Tumor reduction was calculated based on the average tumor volume following each gene perturbation as compared to the directly matched vector control tumors. Statistical significance of difference in tumor size was calculated by both the Wilcoxn signed-rank test and the t-test to assess consistency of significance calls, comparing tumors derived from perturbed cells with tumors induced by directly matching vector control cells.

[4] = system: mp53/Ras cells; experiment: Proliferation and morphology of mp53/Ras cells in adherent culture; format: cell-based, mouse; settings: for cell proliferation over time: mp53/Ras cells, 2.5 mM
Description: as §4

[5] = system: cooperation response genes; experiment: TLDA QPCR of CRG expression in HDACi-treated mp53/Ras cells; format: cell-based, mouse; settings: 2.5 mM, 3 days, 56 CRGs tested by TLDA
Protocol: The YAMC cell system (Jat et al., 1991; Whitehead et al., 1993) and transformation of these cells by mp53/Ras are described elsewhere (Xia and Land, 2007). YAMC and mp53/Ras cells were cultured for two days at 39° C. in RPMI with 10% FBS without interferon-γ on collagen IV-coated dishes. Cells were then re-plated on collagen IV-coated dishes into the same medium containing either 2.5 mM NB, 2.5 mM VA, or no drug for 72 hours at a density of 4.58×10^5 cells per 15-cm dish. Cells were harvested for RNA isolation at this point, or used for biological assays as described below.
The TaqMan Low-Density Array (Applied Biosystems) consists of TaqMan qPCR reactions targeting the cooperation response genes available and control genes (18S rRNA, GAPDH) in a microfluidic card. TLDA were used to independently test gene expression differences observed in the CMap database which used Affymetrix arrays. To generate cDNA for qPCR analysis, quadruplicate samples of RNA was isolated from untreated YAMC cells or mp53/Ras cells treated with either 2.5 mM VA, 2.5 mM NB or no drug for 72 hours, using the RNeasy and Qiashredder kits (Qiagen). Ten μg of RNA per sample were mixed with 1× SuperScript II First Strand buffer, 10 mM DTT, 400 μM dNTP mixture, 0.3 ng random hexamer primer, 2 μL RNaseOUT RNase inhibitor and 2 μL of SuperScript II reverse transcriptase in a 100 μL reaction (all components from Invitrogen). RT reactions were carried out by denaturing RNA at 70° C. for 10 minutes, plunging RNA on to ice, adding other components, incubating at 42° C. for 1 hour and heat inactivating the RT enzyme by a final incubation at 70° C. for 10 minutes.
For each sample, 82 μL of cDNA was combined with 328 μl of nuclease free water (Invitrogen) and an equal volume of TaqMan Universal PCR Master Mix No AmpErase UNG (Applied Biosystems). The mixture was loaded into each of 8 ports on the card at 100 μL per port. Each reaction contained forward and reverse primer at a final concentration of 900 nM and a TaqMan MGB probe (6-FAM) at 250 nM final concentration. […]. The real-time RT-PCR amplifications were run on an ABI Prism 7900HT Sequence Detection System (Applied Biosystems) with a TaqMan Low Density Array Upgrade. Thermal cycling conditions were as follows: 2 min at 50° C., 10 min at 94.5° C., 40 cycles of 97° C. for 30 seconds, and annealing and extension at 59.7° C. for 1 minute. Each individual replicate cDNA sample was processed on a separate card.
Gene expression values were derived using SDS 2.2 software package (Applied Biosystems). Differential gene expression was calculated by the ΔΔCt method. Briefly, using threshold cycle (Ct) for each gene, change in gene expression was calculated for each sample comparison by the formulae: […]

[6] = system: YAMC cells; experiment: Cell death / anoikis by TUNEL staining, YAMC cells; format: cell-based, mouse; settings: methylcellulose without FBS or ITS-A
Protocol: as §1, §2, §3

[7] = system: HT-29 cells; experiment: Xenograft tumor formation by HT-29 colon cancer cells in nude mice; format: in vivo, human; settings: HT-29 cells with gene perturbation, vs matched vector control
Protocol: as §5

Molecule	tumor formation in nude mice by drug-pre-treated cells ([3]; four weeks)	cell proliferation over time [4]	proportion of CRGs whose expression is significantly altered (reversal of CRG signature) [5] [%]	% Change in Tumor Volume (Perturbed vs. Control) [3] [%]	further results
CCCC(=O)[O-].[Na+] [sodium butyrate]	significantly smaller tumors	completely inhibited	~55		increase in cell death (TUNEL) [1]: greater than five-fold; cell morphology [2]: unaffected; NB Tumors ([3]; mp53/Ras cells treated with 2.5 mM NB for three days before injection, 500,000 cells s.c. in CD1 nude mice, four weeks, tumors/injections): 1/16; cell morphology ([4]; transformed cells, 5 mM, three days, 10% FBS medium): dramatic morphological change; proportion of CRGs whose expression is significantly altered (reversal of CRG signature) ([5]; listed as NB): about 55%; apoptosis (TUNEL) [6]: did not decrease apoptosis
CCCC(CCC)C(=O)O [valproic acid]	significantly smaller tumors	completely inhibited	~55		proportion of CRGs whose expression is significantly altered (reversal of CRG signature) ([5]; listed as VA): about 55%
Plac8: shRNA-dependent stable knock-down of up-regulated CRG Plac8 (retroviral) (sense CTGGCAGACCAGCCTGTGTTT; the letters are possibly those of the target site)				−100	% Change in Tumor Volume (Perturbed vs. Control) [7]: −100.00%
Rgs2: shRNA-dependent stable knock-down of up-regulated CRG Rgs2 (retroviral) (sense GCGCAGCTCTGGGCAGAAG; the letters are possibly those of the target site)				−60	
Slc14a1: shRNA-dependent stable knock-down of up-regulated CRG Slc14a1 (retroviral) (sense TCCTGATTCTGGTGGGACT; the letters are possibly those of the target site)				180	
Sod3: shRNA-dependent stable knock-down of up-regulated CRG Sod3 (retroviral) (sense GGCGACACGCATGCCAAAG; target site or template, no part of the molecule)				−72	
